Results: ChEMBL document CHEMBL1140554, “2-Aryl-3,3,3-trifluoro-2-hydroxypropionic acids: a new class of protein tyrosine phosphatase 1B inhibitors” (Bioorg Med Chem Lett, 2007)
The source made the active and inactive calls. No cut-off for these calls is given here.

What follows are compounds tested against T1, Tyrosine-protein phosphatase non-receptor type 1 (Homo sapiens, UniProt P18031) (assay: Inhibition of PTP1B expressed in Sf9 cells).
T1 sequence (P18031 whole entry): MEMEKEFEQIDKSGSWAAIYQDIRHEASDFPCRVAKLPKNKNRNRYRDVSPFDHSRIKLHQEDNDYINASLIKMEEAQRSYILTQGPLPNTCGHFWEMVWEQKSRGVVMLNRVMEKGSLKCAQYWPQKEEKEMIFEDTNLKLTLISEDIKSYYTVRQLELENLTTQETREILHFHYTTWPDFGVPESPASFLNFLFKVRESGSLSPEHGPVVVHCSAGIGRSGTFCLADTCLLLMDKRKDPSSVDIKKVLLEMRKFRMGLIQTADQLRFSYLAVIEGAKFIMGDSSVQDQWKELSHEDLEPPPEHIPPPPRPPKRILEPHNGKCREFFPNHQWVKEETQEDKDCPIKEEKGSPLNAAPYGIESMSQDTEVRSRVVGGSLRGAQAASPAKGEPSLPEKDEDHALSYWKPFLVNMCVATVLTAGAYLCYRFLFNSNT
For `COCn1cc(C(O)(C(=O)O)C(F)(F)F)c2ccc(OCc3ccccc3)cc21` (stereo not given), the IC50 was 382 µM.
`CCCCCOc1ccc(C(O)(C(=O)O)C(F)(F)F)cc1OCCc1sc(-c2ccc(Cl)cc2)nc1C` (stereo not given) gave an IC50 of 12 µM.
In the case of `COC(=O)c1c(O)cccc1OC/C=C/c1ccc(F)c(-c2cc(C(=O)O)no2)c1`, the IC50 is reported as 110 µM.
Compound `Cc1nc(-c2ccc(Cl)cc2)sc1CCOc1cc(C(O)(C(=O)O)C(F)(F)F)ccc1OCC(=O)O` (stereo not given) has an IC50 of 500 µM.
For `COCn1cc(C(O)(C(=O)O)C(F)(F)F)c2cc(OCCc3sc(-c4ccc(Cl)cc4)nc3C)ccc21` (stereo not given), the IC50 was 59 µM.
In the case of `Cc1nc(-c2ccc(Cl)cc2)sc1CCOc1cc(C(O)(C(=O)O)C(F)(F)F)ccc1OCCc1ccccc1` (stereo not given), the IC50 is reported as 10 µM.
Compound `COCn1cc(C(O)(C(=O)O)C(F)(F)F)c2cccc(OCc3ccccc3)c21` (stereo not given) has an IC50 of 176 µM.
`Cc1nc(-c2ccc(Cl)cc2)sc1CCOc1ccc2c(c1)c(C(O)(C(=O)O)C(F)(F)F)cn2COCC[Si](C)(C)C` (stereo not given) was tested, and the IC50 was 32 µM.
Compound `Cc1nc(-c2ccc(Cl)cc2)sc1CCOc1cc(C(O)(C(=O)O)C(F)(F)F)ccc1OCc1ccc(F)cc1` (stereo not given) has an IC50 of 23 µM.
With `Cc1nc(-c2ccc(Cl)cc2)sc1CCOc1cc(C(O)(C(=O)O)C(F)(F)F)ccc1O` (stereo not given) the IC50 was 105 µM.
In the case of `Cc1nc(-c2ccc(Cl)cc2)sc1CCOc1cc(C(O)(C(=O)O)C(F)(F)F)ccc1OCc1ccncc1` (stereo not given), the IC50 is reported as 36 µM.
In the case of `COc1ccc(COc2ccc(C(O)(C(=O)O)C(F)(F)F)cc2OCCc2sc(-c3ccc(Cl)cc3)nc2C)cc1` (stereo not given), the IC50 is reported as 12 µM.
With `COC(=O)c1c(O)cccc1OCCOc1ccc2c(c1)c(C(O)(C(=O)O)C(F)(F)F)cn2COCC[Si](C)(C)C` (stereo not given) the IC50 was 123 µM.
Compound `Cc1nc(-c2ccc(Cl)cc2)sc1CCOc1cc(C(O)(C(=O)O)C(F)(F)F)ccc1OCc1ccccc1` (stereo not given) has an IC50 of 3.2 µM.
`Cc1nc(-c2ccc(Cl)cc2)sc1CCOc1ccc2c(c1)c(C(O)(C(=O)O)C(F)(F)F)cn2Cc1ccccc1` (stereo not given) was tested, and the IC50 was 27 µM.
For `Cc1nc(-c2ccc(Cl)cc2)sc1CCOc1cccc(C(O)(C(=O)O)C(F)(F)F)c1` (stereo not given), the IC50 was 37 µM.
Work on `O=C(c1ccccc1)C(c1ccccc1)c1ccc(C(F)(F)P(=O)(O)O)cc1` (stereo not given) yielded an IC50 of 1.2 µM.

The compounds below were run against T2, Tyrosine-protein phosphatase non-receptor type 1 (Homo sapiens) (UniProt P18031) (assay: Inhibition of PTP1B expressed in Sf9 cells at 400 uM).
T2 sequence (whole entry): T1 sequence (P18031 whole entry)
For `COCn1cc(C(O)(C(=O)O)C(F)(F)F)c2cc(OCc3ccccc3)ccc21` (stereo not given), the Activity was “inactive”.
With `COCn1cc(C(O)(C(=O)O)C(F)(F)F)c2ccccc21` (stereo not given) the Activity was “inactive”.

What follows are compounds tested against T1, Tyrosine-protein phosphatase non-receptor type 1 (assay: Inhibition of PTP1B in a cell-free assay).
With `Cc1nc(-c2ccc(Cl)cc2)sc1CCOc1cc(C(O)(C(=O)O)C(F)(F)F)ccc1OCc1ccccc1` (stereo not given) the IC50 was 3 µM.
